Test results published in patent US20200325127A1, “PYRIDIN-3-YL ACETIC ACID DERIVATIVES AS INHIBITORS OF HUMAN IMMUNODEFICIENCY VIRUS REPLICATION” (priority 2016, published 2020).
Like-named read-outs stand apart in the source and are kept apart here.

Tested on: NL-RLuc virus
Assay: Inhibition of HIV replication (NL-RLuc luciferase reporter virus in MT-2 cells)
Type: cell-based
Conditions: Human immunodeficiency virus 1, MT2, 120 h
Text: Inhibition of HIV replication: A recombinant NL-RLuc proviral clone was constructed in which a section of the nef gene from NL4-3 was replaced with the Renilla Luciferase gene. This virus is fully infectious and can undergo multiple cycles of replication in cell culture. In addition, the luciferous reporter provides a simple and easy method for quantitating the extent of virus growth and consequently, the antiviral activity of test compounds. The plasmid pNLRLuc contains the proviral NL-Rluc DNA cloned into pUC18 at the PvuII site. The NL-RLuc virus was prepared by transfection of 293T cells with the plasmid pNLRLuc. Transfections were performed using the LipofectAMINE PLUS kit from Invitrogen (Carlsbad, Calif.) according to the manufacturer and the virus generated was titered in MT-2 cells. For susceptibility analyses, the titrated virus was used to infect MT-2 cells in the presence of compound, and after 5 days of incubation, cells were processed and quantitated for virus growth by the amount of expressed luciferase. Assay media was RPMI 1640 supplemented with 10% heat inactivated fetal bovine serum (FBS), 100 units/ml penicillin G/100 units/ml streptomycin, 10 mM HEPES buffer pH 7.55 and 2 mM L-glutamine. The results from at least 2 experiments were used to calculate the EC50 values. Luciferase was quantitated using the Dual Luciferase kit from Promega (Madison, Wis.). Susceptibility of viruses to compounds was determined by incubation in the presence of serial dilutions of the compound. The 50% effective concentration (EC50) was calculated by using the exponential form of the median effect equation where (Fa)=1/[1+(ED50/drug conc.)^m](Johnson V A, Byington R T. Infectivity Assay. In Techniques in HIV Research. ed. Aldovini A, Walker B D. 71-76. New York: Stockton Press. 1990). Activity equal to A refers to a compound having an EC50≤100 nM, while B and C denote compounds having an EC50 between 100 nM and 1 uM (B) or >1 uM (C).

SMILES	EC50 (read-out: EC50 μM)	EC50 (read-out: Activity)
Cc1nc(C)c([C@H](OC(C)(C)C)C(=O)O)c(N2CCC(C)(C)CC2)c1-c1ccc2c(c1)CCN(c1nccc3cccnc13)C2 [Compound 77]	0.002 µM	
Cc1cnc(N2CCc3cc(-c4c(C)nc(C)c([C@H](OC(C)(C)C)C(=O)O)c4N4CCC(C)(C)CC4)ccc3C2)nc1 [Compound 17]		< 0.1 µM
Cc1nc(C)c([C@H](OC(C)(C)C)C(=O)O)c(N2CCC(C)(C)CC2)c1-c1ccc2c(c1)CCN(c1cc(N3CCCC3)ncn1)C2 [Compound 48]	0.003 µM	< 0.1 µM
Cc1nc(C)c([C@H](OC(C)(C)C)C(=O)O)c(N2CCC(C)(C)CC2)c1-c1ccc2c(c1)CCN(c1ccnc3cccnc13)C2 [Compound 88]	0.001 µM	
Cc1nc(C)c([C@H](OC(C)(C)C)C(=O)O)c(N2CCC(C)(C)CC2)c1-c1ccc2c(c1)CCN(c1nnc(-c3ccccc3)cc1C(N)=O)C2 [Compound 9]		< 0.1 µM
Cc1nc(C)c([C@H](OC(C)(C)C)C(=O)O)c(N2CCC(C)(C)CC2)c1-c1ccc2c(c1)CCN(c1ncc3cc(Br)ccc3n1)C2 [Compound 72]	0.004 µM	
Cc1nc(NC(C)(C)C)cc(N2CCc3cc(-c4c(C)nc(C)c([C@H](OC(C)(C)C)C(=O)O)c4N4CCC(C)(C)CC4)ccc3C2)n1 [Compound 64]		< 0.1 µM
Cc1nc(C)c([C@H](OC(C)(C)C)C(=O)O)c(N2CCC(C)(C)CC2)c1-c1ccc2c(c1)CCN(c1ccc3cnccc3n1)C2 [Compound 70]	0.0005 µM	
Cc1nc(C)c([C@H](OC(C)(C)C)C(=O)O)c(N2CCC(C)(C)CC2)c1-c1ccc2c(c1)CCN(c1ccnc(C(F)(F)F)n1)C2 [Compound 60]		< 0.1 µM
COc1ccnc(N2CCc3cc(-c4c(C)nc(C)c([C@H](OC(C)(C)C)C(=O)O)c4N4CCC(C)(C)CC4)ccc3C2)n1 [Compound 12]		< 0.1 µM
Cc1nc(C)c([C@H](OC(C)(C)C)C(=O)O)c(N2CCC(C)(C)CC2)c1-c1ccc2c(c1)CCN(c1cnc3ccccc3n1)C2 [Compound 71]	0.01 µM	
CCc1ccnc(N2CCc3cc(-c4c(C)nc(C)c([C@H](OC(C)(C)C)C(=O)O)c4N4CCC(C)(C)CC4)ccc3C2)n1 [Compound 32]		< 0.1 µM
COc1ncnc(N2CCc3cc(-c4c(C)nc(C)c([C@H](OC(C)(C)C)C(=O)O)c4N4CCC(C)(C)CC4)ccc3C2)c1C [Compound 50]		< 0.1 µM
Cc1cc(N2CCc3cc(-c4c(C)nc(C)c([C@H](OC(C)(C)C)C(=O)O)c4N4CCC(C)(C)CC4)ccc3C2)nc(C(C)C)n1 [Compound 44]		< 0.1 µM
Cc1nc(C)c([C@H](OC(C)(C)C)C(=O)O)c(N2CCC(C)(C)CC2)c1-c1ccc2c(c1)CCN(c1cc(Cl)ncn1)C2 [Compound 27]		< 0.1 µM
Cc1nc(C)c([C@H](OC(C)(C)C)C(=O)O)c(N2CCC(C)(C)CC2)c1-c1ccc2c(c1)CCN(c1nccs1)C2 [Compound 6]	0.007 µM	< 0.1 µM
Cc1nc(C)c([C@H](OC(C)(C)C)C(=O)O)c(N2CCC(C)(C)CC2)c1-c1ccc2c(c1)CCN(c1nnc(-c3ccccc3)cc1C#N)C2 [Compound 68]		< 0.1 µM
Cc1nc(C)c([C@H](OC(C)(C)C)C(=O)O)c(N2CCC(C)(C)CC2)c1-c1ccc2c(c1)CCN(c1ccnc(C3CC3)n1)C2 [Compound 59]		< 0.1 µM
Cc1nc(C)c([C@H](OC(C)(C)C)C(=O)O)c(N2CCC(C)(C)CC2)c1-c1ccc2c(c1)CCN(c1cc(N)ncn1)C2 [Compound 42]		< 0.1 µM
Cc1nc(C)c([C@H](OC(C)(C)C)C(=O)O)c(N2CCC(C)(C)CC2)c1-c1ccc2c(c1)CCN(c1ncc3cc(F)ccc3n1)C2 [Compound 75]	0.003 µM	
Cc1nc(C)c([C@H](OC(C)(C)C)C(=O)O)c(N2CCC(C)(C)CC2)c1-c1ccc2c(c1)CCN(c1ncnc3c1CCCC3)C2 [Compound 15]		< 0.1 µM
Cc1nc(C)c([C@H](OC(C)(C)C)C(=O)O)c(N2CCC(C)(C)CC2)c1-c1ccc2c(c1)CCN(c1ncc(F)cn1)C2 [Compound 21]		< 0.1 µM
Cc1nc(C)c([C@H](OC(C)(C)C)C(=O)O)c(N2CCC(C)(C)CC2)c1-c1ccc2c(c1)CCN(c1ncncc1F)C2 [Compound 25]		< 0.1 µM
Cc1nc(C)c([C@H](OC(C)(C)C)C(=O)O)c(N2CCC(C)(C)CC2)c1-c1ccc2c(c1)CCN(c1ccc(C(F)(F)F)nn1)C2 [Compound 35]	0.01 µM	< 0.1 µM
CCc1cnc(N2CCc3cc(-c4c(C)nc(C)c([C@H](OC(C)(C)C)C(=O)O)c4N4CCC(C)(C)CC4)ccc3C2)nc1 [Compound 33]		< 0.1 µM

SMILES	EC50 (read-out: EC50 μM)	EC50 (read-out: Activity)
COc1cnc(SC)nc1N1CCc2cc(-c3c(C)nc(C)c([C@H](OC(C)(C)C)C(=O)O)c3N3CCC(C)(C)CC3)ccc2C1 [Compound 57]		< 0.1 µM
Cc1nc(C)c([C@H](OC(C)(C)C)C(=O)O)c(N2CCC(C)(C)CC2)c1-c1ccc2c(c1)CCN(c1ncnc3ccccc13)C2 [Compound 76]	0.002 µM	
COc1nccc(N2CCc3cc(-c4c(C)nc(C)c([C@H](OC(C)(C)C)C(=O)O)c4N4CCC(C)(C)CC4)ccc3C2)n1 [Compound 40]	0.002 µM	< 0.1 µM
COc1ccc(N2CCc3cc(-c4c(C)nc(C)c([C@H](OC(C)(C)C)C(=O)O)c4N4CCC(C)(C)CC4)ccc3C2)nn1 [Compound 47]		< 0.1 µM
Cc1nc(C)c([C@H](OC(C)(C)C)C(=O)O)c(N2CCC(C)(C)CC2)c1-c1ccc2c(c1)CCN(c1ncnc3ccc(F)cc13)C2 [Compound 85]	0.002 µM	
Cc1nc(C)c([C@H](OC(C)(C)C)C(=O)O)c(N2CCC(C)(C)CC2)c1-c1ccc2c(c1)CCN(c1nc(N3CCOCC3)nc(N3CCOCC3)n1)C2 [Compound 37]		< 0.1 µM
Cc1nc(C)c([C@H](OC(C)(C)C)C(=O)O)c(N2CCC(C)(C)CC2)c1-c1ccc2c(c1)CCN(c1ncccc1C(=O)O)C2 [Compound 16]		0.1 to 1 µM
Cc1nc(C)c([C@H](OC(C)(C)C)C(=O)O)c(N2CCC(C)(C)CC2)c1-c1ccc2c(c1)CCN(c1ncnc3cc(Cl)ccc13)C2 [Compound 89]	0.004 µM	
COc1cc(N2CCc3cc(-c4c(C)nc(C)c([C@H](OC(C)(C)C)C(=O)O)c4N4CCC(C)(C)CC4)ccc3C2)nc(SC)n1 [Compound 62]	0.004 µM	< 0.1 µM
Cc1nc(C)c([C@H](OC(C)(C)C)C(=O)O)c(N2CCC(C)(C)CC2)c1-c1ccc2c(c1)CCN(c1cc(O)nc(N)n1)C2 [Compound 66]	0.32 µM	0.1 to 1 µM
Cc1nc(C)c([C@H](OC(C)(C)C)C(=O)O)c(N2CCC(C)(C)CC2)c1-c1ccc2c(c1)CCN(c1cc(C3CC3)ncn1)C2 [Compound 43]		< 0.1 µM
Cc1cc(N2CCc3cc(-c4c(C)nc(C)c([C@H](OC(C)(C)C)C(=O)O)c4N4CCC(C)(C)CC4)ccc3C2)ncn1 [Compound 19]		< 0.1 µM
COCc1cc(N2CCc3cc(-c4c(C)nc(C)c([C@H](OC(C)(C)C)C(=O)O)c4N4CCC(C)(C)CC4)ccc3C2)ncn1 [Compound 51]		< 0.1 µM
Cc1nc(C)c([C@H](OC(C)(C)C)C(=O)O)c(N2CCC(C)(C)CC2)c1-c1ccc2c(c1)CCN(c1nc(C(F)(F)F)cc3ccccc13)C2 [Compound 79]	0.007 µM	
Cc1nc(O)cc(N2CCc3cc(-c4c(C)nc(C)c([C@H](OC(C)(C)C)C(=O)O)c4N4CCC(C)(C)CC4)ccc3C2)n1 [Compound 65]		0.1 to 1 µM
Cc1nc(C)c([C@H](OC(C)(C)C)C(=O)O)c(N2CCC(C)(C)CC2)c1-c1ccc2c(c1)CCN(c1nc(N(C)C)c3ccccc3n1)C2 [Compound 82]	0.001 µM	
CSc1nc(N2CCc3cc(-c4c(C)nc(C)c([C@H](OC(C)(C)C)C(=O)O)c4N4CCC(C)(C)CC4)ccc3C2)cc(C(F)(F)F)n1 [Compound 63]		< 0.1 µM
Cc1nc(C)c([C@H](OC(C)(C)C)C(=O)O)c(N2CCC(C)(C)CC2)c1-c1ccc2c(c1)CCN(c1nccc(N3CCOCC3)n1)C2 [Compound 10]		< 0.1 µM
Cc1ccnc(N2CCc3cc(-c4c(C)nc(C)c([C@H](OC(C)(C)C)C(=O)O)c4N4CCC(C)(C)CC4)ccc3C2)n1 [Compound 30]		< 0.1 µM
Cc1nc(C)c([C@H](OC(C)(C)C)C(=O)O)c(N2CCC(C)(C)CC2)c1-c1ccc2c(c1)CCN(c1ncnc3c1CCC3)C2 [Compound 52]		< 0.1 µM
Cc1nc(C)c([C@H](OC(C)(C)C)C(=O)O)c(N2CCC(C)(C)CC2)c1-c1ccc2c(c1)CCN(c1nccc(-c3ccccc3)n1)C2 [Compound 8]		< 0.1 µM
Cc1nc(C)c([C@H](OC(C)(C)C)C(=O)O)c(N2CCC(C)(C)CC2)c1-c1ccc2c(c1)CCN(c1ncncc1-c1ccccc1)C2 [Compound 38]		< 0.1 µM
COc1cc(N2CCc3cc(-c4c(C)nc(C)c([C@H](OC(C)(C)C)C(=O)O)c4N4CCC(C)(C)CC4)ccc3C2)ncn1 [Compound 31]		< 0.1 µM
COc1ccc2c(N3CCc4cc(-c5c(C)nc(C)c([C@H](OC(C)(C)C)C(=O)O)c5N5CCC(C)(C)CC5)ccc4C3)ncnc2c1 [Compound 80]	0.001 µM	
COc1cc(N2CCc3cc(-c4c(C)nc(C)c([C@H](OC(C)(C)C)C(=O)O)c4N4CCC(C)(C)CC4)ccc3C2)nc(N)n1 [Compound 56]		< 0.1 µM
